Data from ChEMBL document CHEMBL3832051, “DailyMed|setid=970a767a-7a65-4cdf-84fe-4dbe0a77b80a | METRONIDAZOLE - metronidazole lotion|Physicians Total Care, Inc”.

Experiment: Evaluation of pharmacokinetic parameters for metronidazole following topical administration of 7.5 mg of metronidazole (1 g metronidazole topical lotion) for 4 days to the faces of 8 patients.
Type: ADME, organism-based
Parameters: dose 7.5 mg, route topical
Conditions: human, in vivo, topical or ocular, dosed compound id 31, dosed compound name METRONIDAZOLE, gender male and female, regimen Twice daily, study dosing duration 4 days, tissue Plasma

Cmax (sampling time1 5 days): 96 ng/mL
AUC at 96 h (read-out: AUC(0-24)): 962 ng·h/mL
Compound: Cc1ncc([N+](=O)[O-])n1CCO [METRONIDAZOLE]
